In assay [1] the test system is ALK2, ALK3, and ALK6. To be noted: cited from earlier work.
Assay [2] has as its system rodent GSK3β homologs. The conditions noted are these: cited from earlier work.
In assay [3] the test system is differentiated mDA cells from hPSC and hiPSC. Kind of assay: mRNA expression of marker genes in differentiated mDA cells (Wnt-boost protocol with or without FGF18 and/or IWP2). It counts as cell-based, human. The protocol:
hPSC and hiPSC were used for the differentiation methods. First, the effect of Wnt signaling on ALDH1A1 induction in mDA cells differentiated with different protocols was evaluated. The mRNA expression levels of FOXA2, LMX1A, EN1, WNT1, OTX2, ALDH1A1 and PAX6 were evaluated in day 16-differentiated mDA cells produced using Wnt-boost, Wnt-boost+IWP2 (day 10-day 16), and Wnt-boost+IWP2 (day 12-day 16) protocols, with or without FGF18 (day 12-16) (FIG. 1).
SMA mRNA expression level was not detectable. The Wnt-boost protocol in combination with FGF18 and IWP2 generated optimal A/P and DN patterned precursors, where more than 90% cells are FOXA2/EN1 double positive (FIG. 2A). […] Furthermore, The mRNA expression levels of FOXA2, LMX1A, OTX2, EN1, ALDH1A1, BARHL2, BARHL1, PAX6, ALDH2, and WNT1 were evaluated at day 16 in differentiated mDA cells produced using Wnt-boost, Wnt-boost+IWP2 (day 12-day 16) protocols, with or without FGF18 (FIG. 3). The effect of IWP2 on the expression of marker genes in the differentiated cells was determined. […] The present disclosure observed the presence of very high quadrupole positive cells at day 16 (FOXA2/LMX1A, OTX2/EN1). […] Additionally, the expression of ALDH1A1, WNT1, PITX3, DAT, DDC, VMTA2 were increased by the addition of IWP2 and FGF18, whereas IWP2 lowered the expression of Ki67, SMA and SIX1. Immuno-staining images of day 60-differentiated cells were collected showing the expression of FOXA2, TH, and MAP2 (FIG. 14A), and EN1 and TH (FIG. 14B).
The mRNA expression levels of FOXA2, LMX1A, OTX2, EN1, ALDH1A1, WNT1, BARHL1, PAX6, OTX2, and NKX2-2 were evaluated at day 16 in differentiated mDA cells produced using Wnt-boost, Wnt-boost+IWP2 (day 12-day 16) protocols, with or without FGF18. The present disclosure discovered that IWP2 exposure led to increased ALDH1A1 as well as high endogenous WNT1 expression at day 16 both in Wnt Boost and Wnt Boost+FGF18 conditions. Moreover, IWP2 exposure lowered PAX6 and NKX2-2 expression (FIG. 12).
The mRNA expression of marker genes in sorted day 28-differentiated CD49^weak/CD184^weak cells and CD49^weak/CD184^strong cells were measured (FIGS. 21 and 22).

For assay [4], the system named is hPSC-derived mDA neurons. The assay can be described thus: Optimizing WNT inhibition in mDA neuron differentiation (qRT-PCR and ICC). It counts as cell-based, human. The text has this:
This example is designed to optimize the temporal window and concentration of the WNT treatment, and to test whether reactivation of non-canonical signaling is required for optimal levels of mDA neuron differentiation or maturation. […] IWP2 inhibits both non-canonical signaling and canonical signaling. The expressions of PITX3, DAT, and VMAT2 are quantified by qRT-PCR and immunocytochemistry (ICC). […] Optimized conditions are validated across hPSC lines (3 hESC and 3 iPSC lines; >3 independent differentiations each) (Zimmer, et al. Proceedings of the National Academy of Sciences of the United States of America 115, […]-[…] (2018)) including male and female lines.

Setting [5] is: day 16, both Wnt Boost and Wnt Boost+FGF18 conditions, IWP2 day 12-day 16.

As to `c1ccc2c(-c3cnn4cc(-c5ccc(N6CCNCC6)cc5)cnc34)ccnc2c1` [LDN193189, 4-(6-(4-(piperazin-1-yl)phenyl)pyrazolo[1,5-a]pyrimidin-3-yl)quinoline], the “inhibitor of ALK2, ALK3, and ALK6” value in assay [1] was “highly potent”.
Turning to `Cc1c[nH]c(-c2cnc(NCCNc3ccc(C#N)cn3)nc2-c2ccc(Cl)cc2Cl)n1` [CHIR99021, 6-(2-(4-(2,4-dichlorophenyl)-5-(4-methyl-1H-imidazol-2-yl)pyrimidin-2-ylamino)ethylamino)nicotinonitrile], the “IC50 values against rodent GSK3β homologs” value in assay [2] is given as “nanomolar”.
For the molecule `Cc1ccc2nc(NC(=O)CSc3nc4c(c(=O)n3-c3ccccc3)SCC4)sc2c1` [IWP2], the “expression of Ki67, SMA and SIX1” value in assay [3] (Wnt-boost protocol, IWP2 day 12 to day 16) is listed as “lowered”. Besides, the “expression of ALDH1A1” value in assay [3] (continued exposure until day 30, day 30-differentiated cells) is “further induced”. The “PAX6 and NKX2-2 expression” value in assay [3] (day 16, IWP2 day 12-day 16) was “lowered”. Besides, in assay [3] (setting [5]), the ALDH1A1 expression result was “increased” and the “endogenous WNT1 expression” value is given as “high”. The “expression of ALDH1A1” value in assay [3] (exposure from day 12 to day 25, sorted day 28-differentiated cells, confirmed by immunofluorescent staining) is given as “further induced”. In addition, the “effect on the expression of EN1 or the emergence of contaminating markers (SIX1 and SMA)” value in assay [4] is “does not negatively affect”.
Take `Oc1nc(-c2ccc(C(F)(F)F)cc2)nc2c1CSCC2` [XAV939]: the “inhibition of canonical signaling alone: results comparable to the IWP2 treatment” value in assay [4] (preliminary data (not shown)) is recorded as “might not be sufficient”.

B1: FGF18: FGF activator, member of the FGF8 subfamily (protein, UniProt O76093 28-207, looked up)
Fibroblast growth factor 18: EENVDFRIHVENQTRARDDVSRKQLRLYQLYSRTSGKHIQVLGRRISARGEDGDKYAQLLVETDTFGSQVRIKGKETEFYLCMNRKGKLVGKPDGTSKECVFIEKVLENNYTALMSAKYSGWYVGFTKKGRPRKGPKTRENQQDVHFMKRYPKGQPELQKPFKYTTVTKRSRRIRPTHPA
For the molecule B1, the “expression of EN1” value in assay [3] (Wnt-boost protocol, FGF18 day 12 to day 16) is “high expression”.

Source of the values: US20230143486A1, “METHODS OF GENERATING MIDBRAIN DOPAMINE NEURONS, MIDBRAIN NEURONS AND USES THEREOF” (MEMORIAL SLOAN-KETTERING CANCER CENTER, priority 2020, published 2023).
